From patent publication US20240327417A1, “HETEROCYCLIC COMPOUNDS” (BeiGene Switzerland GmbH, priority 2021, published 2024)

What was measured:
[1] = target: T1, Full length DGKα (D21-10BG, SignalChem) (Homo sapiens, UniProt P23743); assay: Biochemical DGK IC50 assay (ADP-Glo, lipid micelle substrate), DGKα; details: 7.5 nM enzyme, 140 μM ATP, 80 μM DAG, 1 hour preincubation, 1 hour reaction, room temperature, read-out: IC50s for DGKα
T1 construct: Full length DGKα (D21-10BG, SignalChem); purchased SignalChem D21-10BG
Protocol: (§1) Enzymatic reactions of DGKζ, DGKα and DGKδ were performed using ADP-Glo assay with lipid micelle substrate. […] Full length DGKα (D21-10BG, SignalChem) and full length DGKδ (D23-10G, SignalChem) were purchased. Lipid micelle was prepared by dissolving DAG (Sigma, 317505-10MG) and PS (Sigma, P7769-100MG) with chloroform which was firtherly removed by rotary evaporation. The obtained residue was resuspended in buffer containing 25 mM HEPES pH 7.0, 0.5 mM EDTA and 160 mM Octyl β-D glucopyranoside by vigorous mixing and ultrasonic (IID, Scientz).
(§2) The inhibition activities testing for the compound disclosed herein were carried out at room temperature in assay buffer containing 50 mM HEPES, 10 mM MgCl2, 0.01% BSA, 0.1 mM Na3VO4, 0.005% Tween-20 and 0.01 mM CaCl2. Compounds in DMSO were dispensed into wells of a black 384 well plate (Corning 4514) using D300e digital dispenser (Tecan). The ranges of compounds final concentration were 1.55˜10000 nM or 23.3˜150000 nM. 3 μL 2× enzyme solution was added to wells. […] After 1 hour reaction, 5 μL ADP-Glo reagent (Promga V9101) was added and incubated for 40 minutes. 10 μL Kinase Detection reagent was added and incubated for 30 minutes. Luminescence was measured on a microplate reader (PHERAstar FSX, BMG labtech). The IC50s are calculated based on inhibition of enzyme activity in the presence of increasing concentrations of compounds.

[2] = target: T2, Full length DGKζ (in-house protein M1-V929) (Homo sapiens, UniProt Q13574); assay: Biochemical DGK IC50 assay (ADP-Glo, lipid micelle substrate), DGKζ; details: 0.5 nM enzyme, 140 μM ATP, 80 μM DAG, 1 hour preincubation, 1 hour reaction, room temperature, read-out: IC50s for DGKζ
T2 construct: His (N); TEV cleavage site (N); made in house; host or cells: Sf9 insect cells (baculovirus, Bac-to-Bac)
Protocol: as §1, §2
Human His-TEV-DGK-zeta-pFastBac1 and human baculovirus samples was generated using the Bac-to-Bac baculovirus expression system (Invitrogen) according to the manufacturer's protocol. The DNA used for expression of DGK-zeta, have SEQ ID Nos: 1. Baculovirus amplification was achieved using infected SF9 cells at 1:2000 virus/cells ratios, and grown for 96 hours at 27° C. post-transfected.
The expression scaled up for each protein was carried out in the […] from CORNING. 4 L of 3×10^6 cells/mL Sf9 cells (Expression System, Invitrogen) grown in SF900™ II SFM insect medium (Expression System) was infected with virus stock at 1:200 virus/cells ratio, and grown for 48 hours at 27° C. post-transfection. The infected cell culture was harvested by centrifugation at 6000 rpm for 15 min 4° C. in a SORVALL LYNX6000 centrifuge. The cell pellets were stored at −80° C.
Full length human DGKζ produced as described above, was purified from Sf9 baculovirus-infected insect cell paste. The cells were lysed using sonication method, and the lysates were clarified by centrifugation.

T2 sequence (Q13574 1-929 isoform Q13574-4): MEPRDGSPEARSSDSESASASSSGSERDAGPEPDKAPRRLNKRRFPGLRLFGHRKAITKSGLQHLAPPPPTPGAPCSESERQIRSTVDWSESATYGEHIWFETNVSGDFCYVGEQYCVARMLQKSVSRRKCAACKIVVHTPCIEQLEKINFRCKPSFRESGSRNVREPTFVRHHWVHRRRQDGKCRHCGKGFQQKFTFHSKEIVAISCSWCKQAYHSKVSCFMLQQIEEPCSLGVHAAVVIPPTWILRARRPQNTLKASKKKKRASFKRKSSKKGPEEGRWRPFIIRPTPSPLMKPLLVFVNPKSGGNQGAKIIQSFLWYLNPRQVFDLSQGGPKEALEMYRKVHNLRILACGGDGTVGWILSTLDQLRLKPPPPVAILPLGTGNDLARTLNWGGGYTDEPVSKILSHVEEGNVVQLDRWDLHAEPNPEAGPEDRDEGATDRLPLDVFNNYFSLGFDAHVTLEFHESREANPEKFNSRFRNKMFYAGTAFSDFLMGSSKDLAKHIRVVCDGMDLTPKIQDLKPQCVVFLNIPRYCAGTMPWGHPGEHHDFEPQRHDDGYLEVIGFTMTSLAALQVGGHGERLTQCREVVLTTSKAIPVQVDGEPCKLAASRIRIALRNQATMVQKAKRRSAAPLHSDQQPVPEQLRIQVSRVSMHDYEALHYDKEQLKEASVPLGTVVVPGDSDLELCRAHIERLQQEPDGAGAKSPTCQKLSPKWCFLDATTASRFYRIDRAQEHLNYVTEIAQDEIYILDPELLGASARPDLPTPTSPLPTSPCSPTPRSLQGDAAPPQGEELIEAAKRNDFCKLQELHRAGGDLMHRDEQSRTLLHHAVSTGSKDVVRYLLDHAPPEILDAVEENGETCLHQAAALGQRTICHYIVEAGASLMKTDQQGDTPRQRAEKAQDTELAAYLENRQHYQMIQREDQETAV
T1 sequence (P23743 whole entry): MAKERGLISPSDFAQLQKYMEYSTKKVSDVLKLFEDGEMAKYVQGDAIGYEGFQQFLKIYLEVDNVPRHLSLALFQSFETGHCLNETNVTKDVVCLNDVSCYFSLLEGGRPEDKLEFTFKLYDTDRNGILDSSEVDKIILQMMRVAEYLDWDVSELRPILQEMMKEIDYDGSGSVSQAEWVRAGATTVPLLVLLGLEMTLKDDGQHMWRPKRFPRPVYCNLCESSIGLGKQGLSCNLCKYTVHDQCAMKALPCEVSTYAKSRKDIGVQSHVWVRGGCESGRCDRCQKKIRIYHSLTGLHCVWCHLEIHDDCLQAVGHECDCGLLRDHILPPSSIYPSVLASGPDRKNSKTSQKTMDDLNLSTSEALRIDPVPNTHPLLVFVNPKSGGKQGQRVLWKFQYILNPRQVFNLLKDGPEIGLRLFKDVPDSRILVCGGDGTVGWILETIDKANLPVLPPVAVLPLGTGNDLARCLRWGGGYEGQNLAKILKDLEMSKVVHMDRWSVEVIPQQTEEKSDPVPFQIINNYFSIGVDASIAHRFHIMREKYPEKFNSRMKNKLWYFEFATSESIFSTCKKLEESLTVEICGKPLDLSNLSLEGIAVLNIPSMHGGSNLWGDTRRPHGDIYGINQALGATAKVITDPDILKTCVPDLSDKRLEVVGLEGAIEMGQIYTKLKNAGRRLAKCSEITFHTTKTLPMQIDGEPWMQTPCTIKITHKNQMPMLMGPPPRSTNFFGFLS

SMILES	IC50 [1] [µM]	IC50 [2] [µM]
CC[C@H]1CN(C(CCOC)c2ccc3nc(C)sc3c2)[C@H](CC)CN1c1cc(=O)n(C)n2cc(CC#N)nc12 (single isomer, unassigned) [Compound A102b]	0.735	0.623
CC(c1ccc2nccnc2c1)N1C[C@H](C)N(c2cc(=O)n(C)n3cc(CO)nc23)C[C@H]1C (stereo partly drawn) [Compound A3, 8-((2S,5R)-2,5-dimethyl-4-(1-(quinoxalin-6-yl)ethyl)piperazin-1-yl)-2-(hydroxymethyl)-5-methylimidazo[1,2-b]pyridazin-6(5H)-one]	2.3	9
CC[C@@H]1CN(c2cc(=O)n(C)n3cc(CC#N)nc23)[C@@H](CC)CN1Cc1ccc(OC(F)(F)F)cc1 [Compound A36, 2-(8-((2S,5R)-2,5-diethyl-4-(4-(trifluoromethoxy)benzyl)piperazin-1-yl)-5-methyl-6-oxo-5,6-dihydroimidazo[1,2-b]pyridazin-2-yl)acetonitrile]	0.014	0.241
CC[C@H]1CN(C(C)c2ccc(OC(C)C)nc2)[C@H](CC)CN1c1cc(=O)n(C)n2cc(CC#N)nc12 (single isomer, unassigned) [Compound A45b]	0.835	1.06
CC[C@@H]1CN(c2cc(=O)n(C)n3cc(CC#N)nc23)[C@@H](C)CN1C(C)c1ccc2nc(C)sc2c1F (single isomer, unassigned) [Compound A63b]	5.78	1.79
CC[C@H]1CN(C(C)c2ccc(C(F)(F)F)cc2F)[C@H](CC)CN1c1cc(=O)n(C)n2cc(CC#N)nc12 (single isomer, unassigned) [Compound A92b]	0.803	1.61
CC[C@H]1CN(C(C)c2cc3sc(C)nc3cc2F)[C@H](CC)CN1c1cc(=O)n(C)n2cc(CC#N)nc12 (single isomer, unassigned) [Compound A61b]	5.52	2
CC[C@H]1CN(C(C)c2ccc(C(C)(F)F)nc2)[C@H](CC)CN1c1cc(=O)n(C)n2cc(CC#N)nc12 (single isomer, unassigned) [Compound A90b]	0.386	0.802
CC#CCc1cn2c(n1)c(N1C[C@@H](CC)N(C(C)c3ccc4nc(C)sc4c3F)C[C@@H]1CC)cc(=O)n2C (single isomer, unassigned) [Compound A116b]	0.708	> 10
CC[C@@H]1CN(c2cc(=O)n(C)n3cc(CC#N)nc23)[C@@H](COC)CN1C(C)c1ccc2nc(C)sc2n1 (single isomer, unassigned) [Compound A108a]	6.4	> 10
CC[C@@H]1CN(c2cc(=O)n(C)n3cc(C=NOC)nc23)[C@@H](C)CN1C(C)c1ccc2nccnc2c1 (single isomer, unassigned) [Compound A9c]	2.17	> 10
CCC(c1ccc(C(F)(F)F)cc1)N1C[C@H](CC)N(c2cc(=O)n(C)n3cc(CC#N)nc23)C[C@H]1CC (single isomer, unassigned) [Compound A77b]	0.454	1.94
CC[C@H]1CN(C(C)c2ccc(C(C)C)nc2)[C@H](CC)CN1c1cc(=O)n(C)n2cc(CC#N)nc12 (single isomer, unassigned) [Compound A38b]	0.423	0.475
CC[C@@H]1CN(c2cc(=O)n(C)n3cc(CC#N)nc23)[C@@H](C)CN1C(C)c1ccc2nc(C)sc2n1 (single isomer, unassigned) [Compound A84b]	3.31	5.09
CC(c1ccc2nccnc2c1)N1C[C@H](C)N(c2cc(=O)n(C)n3cc(C[S+](C)[O-])nc23)C[C@H]1C (stereo partly drawn) [Compound A10, 8-((2S,5R)-2,5-dimethyl-4-(1-(quinoxalin-6-yl)ethyl)piperazin-1-yl)-5-methyl-2-((methylsulfinyl)methyl)imidazo[1,2-b]pyridazin-6(5H)-one]	> 10	> 10
CC[C@H]1CN(C(C)c2ccc(C(C)(C)C#N)nc2)[C@H](CC)CN1c1cc(=O)n(C)n2cc(CC#N)nc12 (stereo partly drawn) [Compound A40, 2-(5-(1-((2R,5S)-4-(2-(cyanomethyl)-5-methyl-6-oxo-5,6-dihydroimidazo[1,2-b]pyridazin-8-yl)-2,5-diethylpiperazin-1-yl)ethyl)pyridin-2-yl)-2-methylpropanenitrile]	0.297	0.124
CC[C@H]1CN(C(C)c2ccc(C(F)(F)F)cc2)[C@H](CC)CN1c1cc(=O)n(C)n2cc(CC#N)nc12 (single isomer, unassigned) [Compound A91b]	0.319	1.43
CC[C@@H]1CN(c2c(C#N)c(=O)n(C)n3cc(CC#N)nc23)[C@@H](C)CN1C(C)c1ccc2nc(C)sc2n1 (single isomer, unassigned) [Compound A113a]	0.185	0.118
CC[C@@H]1CN(c2cc(=O)n(C)n3cc(CC#N)nc23)[C@@H](C)CN1C(C)c1ccc2ncsc2n1 (single isomer, unassigned) [Compound A80b]	–	8.16
CC[C@H]1CN(C(C)c2ccc3ncsc3n2)[C@H](CC)CN1c1c(F)c(=O)n(C)n2cc(CC#N)nc12 (single isomer, unassigned) [Compound A81a]	–	1.26

Now those with a lower IC50 [2], led by results:

IC50 [1] [µM]	IC50 [2] [µM]	SMILES
0.054	0.026	CC[C@H]1CN(C(C)c2cc3scnc3cc2F)[C@H](CC)CN1c1cc(=O)n(C)n2cc(CC#N)nc12 (single isomer, unassigned) [Compound A59a]
–	0.032	CC[C@H]1CN(C(C)c2ccc3ncsc3n2)[C@H](CC)CN1c1c(F)c(=O)n(C)n2cc(CC#N)nc12 (single isomer, unassigned) [Compound A81b]
–	0.044	CC[C@@H]1CN(c2cc(=O)n(C)n3cc(CC#N)nc23)[C@@H](C)CN1C(C)c1ccc2ncsc2n1 (single isomer, unassigned) [Compound A80a]
0.941	0.008	CC[C@H]1CN(C(C)c2ccc(OC(C)C)nc2)[C@H](CC)CN1c1cc(=O)n(C)n2cc(CC#N)nc12 (single isomer, unassigned) [Compound A45a]
0.789	0.108	CC[C@@H]1CN(c2cc(=O)n(C)n3cc(CC#N)nc23)[C@@H](C)CN1C(C)c1ccc2nc(C)sc2c1 (stereo partly drawn) [Compound A55, 2-(8-((2S,5R)-5-ethyl-2-methyl-4-(1-(2-methylbenzo[d]thiazol-6-yl)ethyl)piperazin-1-yl)-5-methyl-6-oxo-5,6-dihydroimidazo[1,2-b]pyridazin-2-yl)acetonitrile]
0.021	0.011	CCC(c1ccc2nc(C)sc2n1)N1C[C@H](CC)N(c2cc(=O)n(C)n3cc(CC#N)nc23)C[C@H]1CC (single isomer, unassigned) [Compound A99b]
3.09	0.016	CC(c1ccc2c(c1)OC(C)(C)CO2)N1C[C@H](C)N(c2c(F)c(=O)n(C)n3cc(CC#N)nc23)C[C@H]1C (mixture of isomers) [Compound A26, 2-(8-((2S,5R)-4-(1-(3,3-dimethyl-2,3-dihydrobenzo[b][1,4]dioxin-6-yl)ethyl)-2,5-dimethylpiperazin-1-yl)-7-fluoro-5-methyl-6-oxo-5,6-dihydroimidazo[1,2-b]pyridazin-2-yl)acetonitrile]
0.171	0.108	CC[C@@H]1CN(c2cc(=O)n(C)n3cc(CC#N)nc23)[C@@H](C)CN1C(C)c1ccc(C(F)(F)F)cc1F (single isomer, unassigned) [Compound A17a]
0.044	0.02	CC[C@H]1CN(C(C)c2ccc(C3CC3)nc2)[C@H](CC)CN1c1cc(=O)n(C)n2cc(CC#N)nc12 (single isomer, unassigned) [Compound A37a]
0.966	0.016	CC[C@@H]1CN(c2cc(=O)n(C)n3cc(CC#N)nc23)[C@@H](C)CN1C(C)c1ccc2nccnc2c1 (single isomer, unassigned) [Compound A13a]
0.011	0.004	CC[C@H]1CN(C(C)c2ccc3ncsc3c2)[C@H](CC)CN1c1cc(=O)n(C)n2cc(CC#N)nc12 (single isomer, unassigned) [Compound A53a]
